Our source for the melting point values is a melting point compilation (Tetko et al.; mined from patent text by program, amines drawn as free bases though some values may be those of a salt).

A value given as a limit tells only on which side of the number the result lay.

In general, melting point refers to the temperature of the solid-liquid transition. Take `O=C(OCc1ccc(CO)cc1COC(=O)c1ccccc1)c1ccccc1`: the melting point is 91 to 93 °C.

In the case of `CCN(CC)CCNc1ccnc2cc(C(F)(F)F)ccc12`, the melting point lay within 122 to 124 °C.

`CCOC(=O)N1CCc2cc(S(=O)(=O)n3cc(-c4ccccc4)[nH]c3=O)ccc21` gave a melting point of 214 to 216 °C.

In turn, `CC(C)CC(NC(=O)OCc1ccccc1)C(=O)NC(C(=O)Nc1n[nH]c(=S)s1)C(C)C` (stereo unspecified) returned a melting point of 146 °C.

`OCC(O)COc1ccc(NNC(c2ccccc2)(c2ccccc2)c2ccccc2)nn1` (racemic) registered a melting point of 174 to 176 °C.

Regarding `Cc1c(Cl)sn(-c2ccc(Cl)cc2)c1=O`, the melting point lay within 104 to 106 °C.

The molecule `O=C(c1c[nH]c2cc(Oc3ccc(F)cc3)ccc12)C1CSC(c2cccnc2)N1` (stereo unspecified) registered a melting point of 189 to 191 °C.

Take `C=CCc1ccccc1OCC(O)CNC1CCc2ccccc2C1` (stereo unspecified): the melting point is 70 to 72 °C.

For the molecule `COC12CC(C3(c4cncc(Br)c4)N=NCS3)CN(C)C1Cc1cn(C)c3cccc2c13` (stereo unspecified), the melting point is 131 to 137 °C.

In turn, `O=C(O)Cc1nc(-c2c(Cl)cccc2Cl)no1` came in with a melting point of 124 to 126 °C.

`CCCCOc1cc(=O)n(CCCC)c2ccccc12` had a melting point of 50 to 52 °C.

Turning to `O=C(Nc1ccc(Cl)cc1)C(F)(F)C(O)(Cn1cncn1)c1ccc(F)cc1F` (stereo unspecified), the melting point is 86 to 87 °C.

With `CCOC(=O)Nc1cccc(C(=O)Nc2ccc3ccc(OC)nc3n2)c1`, the melting point came out at 120 °C.

As for `COc1ccccc1-n1c(CCl)nc2ccccc2c1=O`, the melting point was 193 to 194 °C.

With `N#Cc1ccc(NC(=N)Nc2ncccc2OCc2ccccc2)cc1`, the melting point is 173 to 175 °C.

In the case of `Cc1c(N2CC(O)C2)c(F)cc2c(=O)c(C(=O)O)cn(-c3cc(N)c(F)cc3F)c12`, the melting point fell in the range of 206 to 208 °C.

The molecule `Cc1coc(NC(=S)Nc2cc(Cl)ccc2C)n1` showed a melting point of 207 to 208 °C.

For the molecule `CC(C)(C)c1ccc(C(=O)Nc2cn3nc(-n4cnc(CO)c4)ccc3n2)cc1`, the melting point lay within 298 to 301 °C.

Take `Fc1cc(N2CCN(CCc3coc4ccc(F)cc34)CC2)c2ncccc2c1`: the melting point stood at 55 °C.

Turning to `CCc1cc2[nH]c(=O)ccc2c(CC)n1`, the melting point fell in the range of 168 to 169 °C.

`Cc1c(C)n(CC2CC2C)c2c(OCc3ccc(F)cc3F)nncc12` (stereo unspecified) registered a melting point of 101 to 102 °C.

`C=C(C)CN(CC(=O)O)c1c(N)c(=O)c1=O` yielded a melting point of 184 to 186 °C.

For the molecule `CCCCCOc1ccc(-c2ccc(CC[C@H]3CC[C@H](CCC)CC3)c(F)c2F)cc1`, the melting point was 27 °C.

As to `CCC(=O)Nc1ccc(Br)c(-n2nc(CC)n(Cc3ccc(-c4ccccc4S(=O)(=O)NC(=O)OC(C)(C)C)cc3F)c2=O)c1`, the melting point lay within 146 to 148 °C.

As for `N#CNC(=NCCO[N+](=O)[O-])c1ccc(N)nc1`, the melting point stood at 108 °C.

`O=C1C(c2cccn2-c2ccccc2)=CC(=O)c2ncccc21` yielded a melting point of 132 to 134 °C.

On to `C=C(CS(=O)(=O)Cc1ccccc1)c1ccccc1`, for which the melting point is 118 °C.

In turn, `C=CCN1C(=O)NC(C)CC1OCC` (stereo unspecified) gave a melting point of 72 to 76 °C.

For `CCOc1ccccc1C1(CC(=O)N2CCN(c3ccncc3)CC2)C(=O)N(S(=O)(=O)c2ccc(OC)cc2OC)c2ccc(Cl)cc21` (stereo unspecified), the melting point was determined as 225 °C.

`CC(C(=O)NCCN(C)C)n1c(-c2ccc(Cl)cc2)nc2cccnc21` (stereo unspecified) yielded a melting point of 130 to 133 °C.

The molecule `CCC(=O)C(=Cc1ccc(C#N)cc1)C(=O)CC` displayed a melting point of 59 to 60 °C.

The molecule `CCOC(=O)C(=O)CC(=O)C=Cc1ccc([N+](=O)[O-])cc1` returned a melting point of 148 to 154 °C.

Consider `CCOC(=O)c1c(C)nc(-c2ccccc2)nc1-c1cc([N+](=O)[O-])ccc1S(C)(=O)=O`, for which the melting point fell in the range of 150 to 151 °C.

For the molecule `Oc1cccc(-c2ccccc2-c2nc(-c3ccccc3)c(-c3ccccc3)o2)c1`, the melting point fell in the range of 125 to 128 °C.

Take `CC(=O)Nc1c(C)cc2c(nc3n2CCC3)c1[N+](=O)[O-]`: the melting point is 198 °C.

`Cc1ccc(C2=NC(O)(C(F)(F)F)CN2c2ccc(S(C)(=O)=O)cc2)cc1Cl` (stereo unspecified) showed a melting point of 201 °C.

In turn, `Oc1ccc(Oc2ccc(O)c(Br)c2)cc1Br` gave a melting point of 106 °C.

In the case of `NS(=O)(=O)c1ccc(N2CC(=O)N(C3CCCCC3)C2=O)cc1`, the melting point was in the range of 237 to 238 °C.

`CCCCCCCCCCCCCCCCCCOc1cc(OCCOc2ccc3ccccc3c2)cc(C(=O)O)c1` came in with a melting point of 93 to 94 °C.

On to `CC[C@H]1[C@@H](O)C(F)(F)C(=O)N1c1ccc(C#N)c(Cl)c1`, for which the melting point was in the range of 137 to 140 °C.

Consider `COC(=O)c1cc(NCc2c(F)c(F)c(C(F)(F)F)c(F)c2F)ccc1O`, for which the melting point was found to be 127 °C.

On to `CC(C#N)(c1ccccc1)c1ccc(Cl)nn1` (stereo unspecified), for which the melting point was 116 to 118 °C.

In the case of `CCCCc1nc(Cl)c(C=O)n1Cc1ccc([N+](=O)[O-])cc1`, the melting point lay in the range of 88 to 89 °C.

Take `Cn1ncc2c(=O)n3c(nc21)SCCCC3`: the melting point stood at 157 °C.

`CN(C)S(=O)(=O)Oc1ccc(-c2ccccc2)cc1` had a melting point of 105 to 107 °C.

Consider `CCOC(=O)C(C)ON=C(C)C` (stereo unspecified), for which the melting point was in the range of 59 to 61 °C.

`COC(=O)CCN1CCCC2(Cc3ccc(Br)cc3)C(=O)N(c3cc(Cl)nc(Cl)c3)C(=O)N12` (stereo unspecified) displayed a melting point of 157 °C.

In the case of `COc1nc(NCCCN2CCOCC2)nc(OC)c1NC(=O)c1ccc(Oc2cncc([Si](C)(C)C)c2)o1`, the melting point was in the range of 80 to 82 °C.

Molecule `Nc1ncc(-c2noc(-c3cnn4c(C(F)(F)F)cc(-c5ccc(F)c(F)c5)nc34)n2)cn1` gave a melting point of 268 °C.

The molecule `CCCCc1nc(SCCF)c(C(=O)O)n1Cc1ccc(-c2ccccc2C(=O)O)cc1` displayed a melting point of 185 to 186 °C.

`COc1cc(CN(O)C(N)=O)ccc1OCc1nc(-c2ccccc2)oc1C` came in with a melting point of 138 to 139 °C.

`CCOC(=O)c1cc(=O)cc(-c2cccc([N+](=O)[O-])c2)o1` gave a melting point of 148 to 152 °C.

In turn, `COc1cc(OC)c2c(=O)[nH]c(-c3ccc(CN4C(=O)CNC4=O)cc3)nc2c1` yielded a melting point of 317 to 318 °C.

As for `N#CC1CCc2cc(C(N)=O)ccc2C1` (stereo unspecified), the melting point was in the range of 180 to 182 °C.

For `CC1(C2CCCC2)Cc2cc(NCCO)c(Cl)c(Cl)c2C1=O` (stereo unspecified), the melting point lay in the range of 135 to 136 °C.

`CC(C)(C(=O)O)C(=O)Oc1ccc(C(=O)c2ccccc2)cc1` came in with a melting point of 147 to 150 °C.

On to `CC1=C(c2ccncc2Cl)SCC(=O)N1`, for which the melting point lay in the range of 169 to 171 °C.

Turning to `CNc1nc2c(cc1NC(=O)N1CCN(c3cc(OC)cc(OC)c3)CC1)CCC2`, the melting point was 148 to 150 °C.

As to `Cc1cc(C)cc(CON2C(=O)COc3ccc(C=C4SC(=S)NC4=O)cc32)c1`, the melting point was above 300 °C.

`COC(=O)CCC(C)C1CCC2C3C(C(C)=O)CC4CC(C(C)=O)CCC4(C)C3C=CC12C` (stereo unspecified) gave a melting point of 137 to 139 °C.

For `N#Cc1ccc(C(=O)N2CCc3c([nH]c4ccccc34)C2)cc1`, the melting point was in the range of 228 to 232 °C.

The molecule `CC(=O)CCc1cc(-c2ccncc2)sc1-c1ccncc1` displayed a melting point of 162 to 163 °C.

On to `O=S(=O)(NN1CCCCC1)c1ccc(S)cc1`, for which the melting point was determined as 93 °C.

In turn, `CCS(=O)(=O)N[C@H]1CC[C@H](CCN2CCC(c3cccc4c3CCO4)CC2)CC1` displayed a melting point of 131 °C.

In the case of `FC(F)(F)c1cnc(-c2ccc(Cl)c(CBr)c2)c(Cl)c1`, the melting point is 71 to 72 °C.

Take `COCCc1nc2c(N)nc3ccc(Br)cc3c2n1CCCN1CCCC1=O`: the melting point lay within 185 to 188 °C.

As for `O=C1OC(=O)c2cc(Oc3ccc(-c4ccccc4)cc3)ccc21`, the melting point was 199 °C.

For `COc1cc(CN2C(C(=O)O)=C(c3ccc4c(c3)OCO4)c3ccccc3S2(=O)=O)cc2c1OCO2`, the melting point was in the range of 181 to 182 °C.

In the case of `CC(C)(C)OC(=O)NC(C(=O)Oc1ccc(/C=c2\[nH]c(=O)/c(=C/c3ccccc3)[nH]c2=O)nc1)c1ccccc1` (stereo unspecified), the melting point worked out at 198 °C.

`COCCNC(=O)c1cccc(-c2cccc3cc(Cc4cccc(C(F)(F)F)c4)sc23)c1` showed a melting point of 113 to 114 °C.

Regarding `CNS(=O)(=O)Cc1ccc(C)cc1`, the melting point was in the range of 49 to 52 °C.

Turning to `CCC(CC)COc1ccc(S(=O)(=O)C2(C(=O)NO)CCN(Cc3ccccc3)CC2)cc1`, the melting point worked out at 114 °C.

`CCCCCCCCCCCCCCCc1cccc(OCC(=O)O)c1` had a melting point of 96 °C.

`Cc1c2c(nc3ccccc13)CCN(C(=O)c1ccc(Cl)cc1)CC2` displayed a melting point of 163 °C.

In turn, `CO/C(=C\c1ccc2oc(Cc3nc(-c4ccccc4)oc3C)cc2c1)C(N)=O` gave a melting point of 160 to 164 °C.

Molecule `Cc1cccc(C(=O)NC(C)(C(N)=S)C(C)C)c1` (stereo unspecified) registered a melting point of 108 to 110 °C.

In the case of `Cc1ccc2c(c1)N(CC(=O)c1ccccc1C)C(=O)C(NC(=O)Nc1cccc(C(=O)O)c1)CN2C(=O)CC(C)C` (stereo unspecified), the melting point was in the range of 202 to 205 °C.

In turn, `CC(=O)C1=C(O)C(=C(C)Nc2cccc(NS(=O)(=O)c3ccccc3)c2)C(=O)OC1=O` had a melting point of 209 °C.

Regarding `CSCc1c(C(F)(F)F)nn(C)c1O`, the melting point lay in the range of 123 to 124 °C.

With `Cc1cc(C)cc(N(CCN)Cc2ccc3nc(NCCCN4CCOCC4)n(Cc4nc(C)ccc4O)c3c2)c1`, the melting point was 196 °C.

As for `O=C1CCC2(CCOC2=O)C(=O)C1` (stereo unspecified), the melting point was 145 to 148 °C.

As to `CC(C)(C)OC(=O)NCCNS(=O)(=O)c1ccc(Br)s1`, the melting point was 106 °C.

In the case of `Fc1ccc(C=Nc2nc3ccc(Cl)cc3s2)cc1`, the melting point fell in the range of 168 to 169 °C.

The molecule `O=C(CNS(=O)(=O)c1ccc2ccccc2c1)NCC(NC(=O)C1CCN(c2ccncc2)CC1)C(=O)N1CCCCC1` (stereo unspecified) showed a melting point of 200 to 202 °C.

As for `NS(=O)(=O)c1cccc(NC(=O)c2cnn3c(C(F)(F)F)cc(-c4ccc(C(F)(F)F)c(F)c4)nc23)c1`, the melting point came out at 259 °C.

For the molecule `Cc1cc(-n2cccn2)c2cccc(OCc3c(Cl)ccc(S(=O)(=O)N4CCC(CO)CC4)c3Cl)c2n1`, the melting point was 138 °C.
